≈ marks a conversion by molar mass, not a printed value.
Experiments:
Assay type in all cases: functional
Staphylococcus aureus [1] = experiment: Antimicrobial activity against Staphylococcus aureus Smith by micro broth dilution or agar based method; conditions: Staphylococcus aureus, Smith; read-out: MIC
Staphylococcus aureus [2] = experiment: Antimicrobial activity against methicillin-resistant Staphylococcus aureus OIT971 by micro broth dilution or agar based method
Streptococcus pneumoniae = experiment: Antimicrobial activity against Streptococcus pneumoniae IID553 by micro broth dilution or agar based method; conditions: Streptococcus pneumoniae, IID553; read-out: MIC
Enterococcus faecium = experiment: Antimicrobial activity against VanA expressing vancomycin-resistant Enterococcus faecium by micro broth dilution or agar based method; conditions: Enterococcus faecium; read-out: MIC
Escherichia coli = experiment: Antimicrobial activity against Escherichia coli ATCC 25922 by micro broth dilution or agar based method; conditions: Escherichia coli, ATCC 25922; read-out: MIC
Acinetobacter baumannii = experiment: Antimicrobial activity against Acinetobacter baumannii IID876 by micro broth dilution or agar based method; conditions: Acinetobacter baumannii, IID876; read-out: MIC
Pseudomonas aeruginosa = experiment: Antimicrobial activity against Pseudomonas aeruginosa PAO1 by micro broth dilution or agar based method; conditions: Pseudomonas aeruginosa, PAO1; read-out: MIC

Row | Compound | MIC (Staphylococcus aureus [1]) [µg/mL] | MIC (Staphylococcus aureus [2]) [µg/mL] | MIC (Streptococcus pneumoniae) [µg/mL] | MIC (Enterococcus faecium) [µg/mL] | MIC (Escherichia coli) [µg/mL] | MIC (Acinetobacter baumannii) [µg/mL] | MIC (Pseudomonas aeruginosa) [µg/mL]
1 | N#Cc1ccc2ncc(F)c(CCC34CCC(NCc5ccc6c(n5)NC(=O)CO6)(CC3)CO4)c2n1 | 0.063 (≈ 0.129 µM) | 0.063 (≈ 0.129 µM) | 1 (≈ 2.05 µM) | 2 (≈ 4.09 µM) | 2 (≈ 4.09 µM) | 1 (≈ 2.05 µM) | 8 (≈ 16.4 µM)
2 | Cc1ccc2ncc(F)c(CCC34CCC(NCc5ccc6c(n5)NC(=O)CO6)(CC3)CO4)c2n1 | 0.25 (≈ 0.524 µM) | 0.125 (≈ 0.262 µM) | 2 (≈ 4.19 µM) | 4 (≈ 8.38 µM) | 8 (≈ 16.8 µM) | 2 (≈ 4.19 µM) | 16 (≈ 33.5 µM)
3 | COc1ccc2ncc(C(F)F)c(CCC34CCC(NCc5ccc6c(n5)NC(=O)CO6)(CC3)CO4)c2n1 | 0.03 (≈ 0.0571 µM) |  | 0.12 (≈ 0.228 µM) | 1 (≈ 1.9 µM) | 4 (≈ 7.61 µM) | 2 (≈ 3.81 µM) | 16 (≈ 30.4 µM)
4 | Cc1nc2c(CCC34CCC(NCc5ccc6c(n5)NC(=O)CO6)(CC3)CO4)ccnc2cc1C#N | 16 (≈ 33 µM) | 16 (≈ 33 µM) | 16 (≈ 33 µM) | 16 (≈ 33 µM) | 16 (≈ 33 µM) | 16 (≈ 33 µM) | 16 (≈ 33 µM)
5 | COc1cc2nccc(CCC34CCC(NCc5ccc6c(n5)NC(=O)CO6)(CC3)CO4)c2nc1C#N | 8 (≈ 16 µM) | 2 (≈ 4 µM) | 32 (≈ 63.9 µM) | 32 (≈ 63.9 µM) | 32 (≈ 63.9 µM) | 32 (≈ 63.9 µM) | 32 (≈ 63.9 µM)
6 | COc1cc(C)c2nccc(CCC34CCC(NCc5ccc6c(n5)NC(=O)CO6)(CC3)CO4)c2n1 | 0.125 (≈ 0.255 µM) | 0.063 (≈ 0.129 µM) | 1 (≈ 2.04 µM) | 8 (≈ 16.3 µM) | 8 (≈ 16.3 µM) | 8 (≈ 16.3 µM) | 32 (≈ 65.4 µM)
7 | COc1cc(C)c2ncc(F)c(CCC34CCC(NCc5ccc6c(n5)NC(=O)CO6)(CC3)CO4)c2n1 | 0.016 (≈ 0.0315 µM) | 0.008 (≈ 0.0158 µM) | 0.25 (≈ 0.493 µM) | 2 (≈ 3.94 µM) | 4 (≈ 7.88 µM) | 2 (≈ 3.94 µM) | 16 (≈ 31.5 µM)
8 | COc1ccc2ncc(C#N)c(CCC34CCC(NCc5ccc6c(n5)NC(=O)CO6)(CC3)CO4)c2n1 | 0.016 (≈ 0.032 µM) | 0.008 (≈ 0.016 µM) | 0.125 (≈ 0.25 µM) | 0.5 (≈ 0.999 µM) | 2 (≈ 4 µM) | 1 (≈ 2 µM) | 4 (≈ 7.99 µM)
9 | Cc1cc(C#N)nc2c(CCC34CCC(NCc5ccc6c(n5)NC(=O)CO6)(CC3)CO4)ccnc12 | 1 (≈ 2.06 µM) | 0.5 (≈ 1.03 µM) | 8 (≈ 16.5 µM) | 8 (≈ 16.5 µM) | 16 (≈ 33 µM) | 4 (≈ 8.25 µM) | 64 (≈ 132 µM)
10 | COc1cc(OC)c2nccc(CCC34CCC(NCc5ccc6c(n5)NC(=O)CO6)(CC3)CO4)c2n1 | 0.5 (≈ 0.989 µM) | 0.25 (≈ 0.494 µM) | 8 (≈ 15.8 µM) | 8 (≈ 15.8 µM) | 32 (≈ 63.3 µM) | 8 (≈ 15.8 µM) | 64 (≈ 127 µM)
11 | O=C1COc2ccc(CNC34CCC(CCc5c(F)cnc6cc(C(F)(F)F)cnc56)(CC3)OC4)nc2N1 | 16 (≈ 30.1 µM) | 16 (≈ 30.1 µM) | 16 (≈ 30.1 µM) | 16 (≈ 30.1 µM) | 16 (≈ 30.1 µM) | 16 (≈ 30.1 µM) | 16 (≈ 30.1 µM)
12 | CN(C)c1nc2c(CCC34CCC(NCc5ccc6c(n5)NC(=O)CO6)(CC3)CO4)ccnc2cc1C(F)(F)F | 8 (≈ 14.4 µM) | 8 (≈ 14.4 µM) | 8 (≈ 14.4 µM) | 8 (≈ 14.4 µM) | 8 (≈ 14.4 µM) | 8 (≈ 14.4 µM) | 8 (≈ 14.4 µM)
13 | COc1cnc2c(CCC34CCC(NCc5ccc6c(n5)NC(=O)CO6)(CC3)CO4)ccnc2c1 | 32 (≈ 67.3 µM) | 8 (≈ 16.8 µM) | 64 (≈ 135 µM) | 64 (≈ 135 µM) | 64 (≈ 135 µM) | 64 (≈ 135 µM) | 64 (≈ 135 µM)
14 | COc1ccc2ncc(C(F)(F)F)c(CCC34CCC(NCc5ccc6c(n5)NC(=O)CO6)(CC3)CO4)c2n1 | 0.03 (≈ 0.0552 µM) |  | 0.25 (≈ 0.46 µM) | 1 (≈ 1.84 µM) | 4 (≈ 7.36 µM) | 2 (≈ 3.68 µM) | 32 (≈ 58.9 µM)
15 | COc1ccc2ncc(OC)c(CCC34CCC(NCc5ccc6c(n5)NC(=O)CO6)(CC3)CO4)c2n1 | 0.125 (≈ 0.247 µM) | 0.063 (≈ 0.125 µM) | 4 (≈ 7.91 µM) | 4 (≈ 7.91 µM) | 16 (≈ 31.6 µM) | 8 (≈ 15.8 µM) | 64 (≈ 127 µM)
16 | COc1cc(CCC23CCC(NCc4ccc5c(n4)NC(=O)CO5)(CC2)CO3)c2nc(OC)ccc2n1 | 4 (≈ 7.91 µM) | 1 (≈ 1.98 µM) | 8 (≈ 15.8 µM) | 8 (≈ 15.8 µM) | 8 (≈ 15.8 µM) | 8 (≈ 15.8 µM) | 8 (≈ 15.8 µM)
17 | O=C1COc2ccc(CNC34CCC(CCc5ccnc6cc(F)cnc56)(CC3)OC4)nc2N1 | 16 (≈ 34.5 µM) | 8 (≈ 17.3 µM) | 32 (≈ 69 µM) | 32 (≈ 69 µM) | 32 (≈ 69 µM) | 16 (≈ 34.5 µM) | 32 (≈ 69 µM)
18 | COc1cc2nccc(CCC34CCC(NCc5ccc6c(n5)NC(=O)CO6)(CC3)CO4)c2nc1C(=O)O | 16 (≈ 30.8 µM) | 16 (≈ 30.8 µM) | 16 (≈ 30.8 µM) | 16 (≈ 30.8 µM) | 16 (≈ 30.8 µM) | 16 (≈ 30.8 µM) | 16 (≈ 30.8 µM)

Source: ChEMBL document CHEMBL3421558, “Structure activity relationship of substituted 1,5-naphthyridine analogs of oxabicyclooctane-linked novel bacterial topoisomerase inhibitors as broad-spectrum antibacterial agents (Part-4)” (Bioorg Med Chem Lett, 2015)
